Laboratory results reported in patent US20130189354A1, “Novel Pharmaceutical Compositions for Treating Chronic Pain and Pain Associated with Neuropathy” (priority 2010, published 2013).
Structures can show the parent of a compound that is named as a salt. Where two headings read alike, the source gives them in different places.

Assays:
[1] = system: α2δ subunit of voltage-gated calcium channels; conditions: cited from earlier work
[2] = system: neuropathy-induced allodynia; conditions: in vivo; cited from earlier work
Diabetic Neuropathy [3] = conditions: literature values; Tramadol Hydrochloride 400 mg/day (Sindrup 1999), Gabapentin 3600 mg/day (Marchettini 2004); cited from earlier work
Fibromyalgia [4] = conditions: literature values; Tramadol Hydrochloride 400 mg/day (Biasi 1998; Russell 2000), Gabapentin 3600 mg/day (Lesley 2007); cited from earlier work
[5] = patients with epilepsy; cited from earlier work
μ-opiate receptor = μ-opiate receptor (Homo sapiens, UniProt P35372); conditions: cited from earlier work
pain [6] = conditions: single oral dose of tramadol 100 mg; cited from earlier work
[7] = cited from earlier work
[8] = system: diabetic neuropathy and fibromyalgia; assay: Pain relief in patients with diabetic neuropathy and fibromyalgia; type: in vivo, human; conditions: 400 mg of tramadol per day
Source text: In certain preferred embodiments, the invention is directed in part to synergistic combinations of dextromethorphan or other NMDA receptor antagonist in an amount sufficient to render a therapeutic effect together with an anticonvulsant and/or a tricyclic anti-depressant and tramadol or its analog, such that an analgesic effect is attained which is at least about 5 (and preferably at least about 10) times greater than that obtained with the dose of tramadol or its analog alone. This is exemplified by the apparent fact that patients with diabetic neuropathy and fibromyalgia, who could not get even 30-40% reduction in pain even with the administration of 400 mg of tramadol per day, can have shown 90-100% pain relief with the inventive composition containing 35 mg of tramadol, 45 mg of dextromethorphan and 90 mg of gabapentin over a period of 12-16 hours.
(§1) The synergistic effect of the combination can further be appreciated using Table 1.

pain [9] = conditions: relative to tramadol; cited from earlier work
Diabetic Neuropathy [10] = assay: Pain relief in diabetic neuropathy patients (Table 1); type: in vivo, human; conditions: individual components at the doses present in TLI-0326 (40.4, 100, 200 mg/day); would have very little effect
Source text: as §1

Fibromyalgia [11] = assay: Pain relief in fibromyalgia patients (Table 1); type: in vivo, human; conditions: individual components at the doses present in TLI-0326 (40.4, 100, 200 mg/day); would have very little effect
Source text: as §1

post-operative pain = conditions: third molar surgery; cited from earlier work
[12] = cited from earlier work; remark: listed apart in the source
uptake of dopamine = conditions: cited from earlier work
[13] = system: a or β adrenergic, muscarinic, histaminergic, and dopaminergic receptors; conditions: cited from earlier work
[14] = rats, i.v. administration; cited from earlier work
central poststroke pain = conditions: 10 of 15 patients; cited from earlier work
[15] = system: painful diabetic neuropathy; conditions: oral; cited from earlier work
postherpetic neuralgia [16] = conditions: oral; cited from earlier work
postherpetic neuralgia [17] = conditions: cited from earlier work
[18] = fibromyalgia trials, cited from earlier work
[19] = diabetic peripheral neuropathy trials; cited from earlier work

Sequence of μ-opiate receptor (P35372 whole entry, species assumed): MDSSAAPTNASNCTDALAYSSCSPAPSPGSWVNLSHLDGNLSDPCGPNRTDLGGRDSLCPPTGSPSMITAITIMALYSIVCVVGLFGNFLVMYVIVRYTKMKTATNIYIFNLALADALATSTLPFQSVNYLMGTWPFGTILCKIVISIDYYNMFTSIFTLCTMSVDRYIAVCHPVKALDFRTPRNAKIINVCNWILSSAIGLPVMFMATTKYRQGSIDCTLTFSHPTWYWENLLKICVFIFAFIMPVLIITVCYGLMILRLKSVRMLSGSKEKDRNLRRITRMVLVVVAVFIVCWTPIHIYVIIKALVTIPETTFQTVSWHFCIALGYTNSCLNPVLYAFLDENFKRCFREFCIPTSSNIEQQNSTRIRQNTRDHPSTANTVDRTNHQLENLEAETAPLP

C[C@@H]1CCC[C@](CN)(CC(=O)O)C1 [(1R,3R)3-MeGBP]
IC50 [1]: > 10000 nM
reversal of neuropathy-induced allodynia [2]: ineffective

NCC1(CC(=O)O)CCCCC1 [Gabapentin]
Pain Relief (percent of reduction in pain) Diabetic Neuropathy (Diabetic Neuropathy [3]): <50%
Pain Relief (percent of reduction in pain) Fibromyalgia (Fibromyalgia [4]): <50%
steady-state predose (Cmin) concentration in cerebrospinal fluid as share of plasma concentration [5]: approximately 20%

COc1cccc(C2(O)CCCCC2CN(C)C)c1 (racemic) [tramadol, (+/−)-trans (RR,SS)-2-[(di-methylamino)methyl]-1-(3-methoxyphenyl)cyclohexanol]
affinity for opiate receptors, fold less than codeine (μ-opiate receptor; relative to codeine): 10 fold
affinity for opiate receptors, fold less than d-propoxyphene (μ-opiate receptor; relative to d-propoxyphene): 100 fold
affinity for opiate receptors relative to dextromethorphan (μ-opiate receptor; relative to dextromethorphan): equivalent
affinity for opiate receptors, fold less than morphine (μ-opiate receptor; relative to morphine): 6,000 fold
duration of the analgesic effect (pain [6]): about 6 hours
accumulation during multiple dose treatment ([7]; multiple dose treatment with tramadol): approximately 2 fold
bioavailability ([7]; oral administration): 68%
time to peak serum concentrations ([7]; oral administration): ≤ 2 h
half-life ([7]; single oral dose of 100 mg tramadol): 5.1 h
reduction in pain [8]: 30-40%

CN(C)C[C@H]1CCCC[C@]1(O)c1cccc(O)c1 [O-desmethyltramadol (M1), O-desmethyltramadol]
analgesic potency relative to parent drug (pain [9]): at least twice the analgesic potency of the parent drug

COc1cccc(C2(O)CCCCC2CN(C)C)c1 (stereo not drawn) [Tramadol Hydrochloride]
Pain Relief (percent of reduction in pain) Diabetic Neuropathy (Diabetic Neuropathy [10]): <10%
Pain Relief (percent of reduction in pain) Diabetic Neuropathy (Diabetic Neuropathy [3]): <35%
Pain Relief (percent of reduction in pain) Fibromyalgia (Fibromyalgia [11]): <10%
Pain Relief (percent of reduction in pain) Fibromyalgia (Fibromyalgia [4]): <30%

C[C@@H]1CCC[C@@](CN)(CC(=O)O)C1 [(1S,3R)3-MeGBP]
IC50 [1]: 42 nM
reversal of neuropathy-induced allodynia [2]: effectively reversed

N[C@@H](Cc1c[nH]c2ccccc12)C(=O)O [tryptophan]
effect on post-operative pain or consumption of other analgesics (post-operative pain): no effect

CCN(CC)C(=O)C1(c2ccccc2)CC1CN.Cl (stereo not drawn) [milnacipran, 1-phenyl-1-diethyl-aminocarbonyl-2-aminomethyl-cyclopropane (Z) hydrochloride]
adverse event: constipation ([12]; 100 mg/day twice daily): 10%
adverse event: headache ([12]; 100 mg/day twice daily): 9%
adverse event: abdominal pain ([12]; 200 mg/day twice daily): 7%
adverse event: headache ([12]; 200 mg/day twice daily): 8%
adverse event: nausea and vomiting ([12]; 200 mg/day twice daily): 7%
effect on uptake of dopamine (uptake of dopamine): does not affect
affinity for receptors [13]: no affinity

COc1cc(CNC(=O)CCCCC=CC(C)C)ccc1O [capsaicin, 8-methyl-N-vanillyl-6-nonenamide]
time to distribution to brain, spinal cord, liver and blood [14]: ≤ 20 min

CN(C)CCC=C1c2ccccc2CCc2ccccc21 [amitriptyline]
patients with superior relief compared with placebo (central poststroke pain): 67%
share of patients with good or moderate response [15]: three-quarters
share of patients with good or moderate response (postherpetic neuralgia [16]): about two-thirds

O=S(=O)([O-])[O-].[Mg+2] [Magnesium (present as magnesium sulfate)]
Pain Relief (percent of reduction in pain) Diabetic Neuropathy (Diabetic Neuropathy [10]): <10%
Pain Relief (percent of reduction in pain) Fibromyalgia (Fibromyalgia [11]): <10%
pain scores compared with placebo (postherpetic neuralgia [17]; 30 mg kg-1 i.v., at 20 and 30 min (P=0.016), not at 10 min): significantly lower
safety, tolerability and efficacy (postherpetic neuralgia [17]; i.v., postherpetic neuralgia): safe, well-tolerated and effective

CC(C)C[C@H](CN)CC(=O)O [pregabalin]
patients discontinued prematurely due to adverse reactions ([18]; 150-600 mg/day): 19%
withdrawal due to fatigue, headache, balance disorder, and weight increased (each) [18]: approximately 1%
patients discontinued prematurely due to adverse reactions [19]: 9%
withdrawal due to asthenia, confusion, and peripheral edema (each) [19]: approximately 1%
